According to ChEMBL document CHEMBL4270599, “Synthesis of a 3'-C-ethynyl-β-d-ribofuranose purine nucleoside library: Discovery of C7-deazapurine analogs as potent antiproliferative nucleosides” (Eur J Med Chem, 2018):
Active and inactive are the calls of the source. The rule behind the calls is not given here.

Tests used:
UACC-257 = test: Growth inhibition of human UACC257 cells assessed as cell growth at 10^-4 M incubated for 48 hrs by sulforhodamine B assay relative to control; assay type: functional; conditions: UACC-257, 48 h, read-out: Activity
M14 = test: Growth inhibition of human M14 cells assessed as cell growth at 10^-4 M incubated for 48 hrs by sulforhodamine B assay relative to control; assay type: functional; conditions: M14, 48 h, read-out: Activity
Hs-578T = test: Growth inhibition of human Hs 578T cells assessed as cell growth at 10^-4 M incubated for 48 hrs by sulforhodamine B assay relative to control; assay type: functional; conditions: read-out: Activity
[1] = Antitumor activity against human MDA-MB-231-LM2 cells xenografted in SCID mouse assessed as tumor weight at 0.3 mg/kg, it 3 times a week for 2 consecutive weeks starting 10 days post inoculation measured at day 35 (reference value: 551 +/- 74 mg); assay type: functional
Homo sapiens [2] = test: Antitumor activity against human MDA-MB-231-LM2 cells xenografted in SCID mouse assessed as decrease in tumor size at 0.3 mg/kg, it 3 times a week for 2 consecutive weeks starting 10 days post inoculation; assay type: functional, organism-based
Homo sapiens [3] = test: Antitumor activity against human MDA-MB-231-LM2 cells xenografted in SCID mouse assessed as inhibition of lung metastasis at 0.3 mg/kg, it 3 times a week for 2 consecutive weeks starting 10 days post inoculation measured at day 34; assay type: functional, organism-based

| SMILES | growth at 100 µM (UACC-257) | growth at 100 µM (M14) | growth at 100 µM (Hs-578T) | Activity [1] | Activity (Homo sapiens [2]) | Activity (Homo sapiens [3]) |
| --- | --- | --- | --- | --- | --- | --- |
| C#C[C@@]1(O)[C@@H](CO)O[C@@H](n2cc(F)c3c(N)ncnc32)[C@@H]1O | -30% | -47% | 8% | – | – | – |
| C#C[C@@]1(O)[C@@H](CO)O[C@@H](n2cc(Cl)c3c(N)ncnc32)[C@@H]1O | – | – | – | 241 mg | Active | Active |
| C#C[C@@]1(O)[C@@H](CO)O[C@@H](n2ccc3c(N)ncnc32)[C@@H]1O | -62% | -88% | 2% | – | – | – |
